Results taken from the supplement of paper PMC10883282.
± gives the standard deviation of the averaged measurements.

Tested on: SW982
Test: relative viability vs DMSO control (72 h) (fraction); higher = more viable cells
Procedure, shortened: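 Sarcoma cell lines were seeded in 384-well plates at densities set to reach 80–90% confluence. After 24 h, 2.5 µl of serially diluted compound was added (source plates 10 mM to 0.0002 mM), and plates were held 72 h at 37 °C, 5% CO2, with 0.1% DMSO vehicle and a 5 µM positive control. Relative viability came from ATPLite readings as percent growth, averaged over up to triplicate wells. Data were rescaled so full viability equals 1 and none equals 0.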

C[C@@H](c1ccc2nccn2c1)n1nnc2ncc(-c3cnn(C)c3)nc21 [Volitinib]
relative viability (0.00017 µM): 1.05 ± 0.02 | relative viability (0.00051 µM): 1.07 ± 0.012 | relative viability (0.00152 µM): 1.05 ± 0.012 | relative viability (0.00457 µM): 1.05 ± 0.056 | relative viability (0.01372 µM): 1.07 ± 0.03 | relative viability (0.04115 µM): 1.06 ± 0.022 | relative viability (0.1235 µM): 1.03 ± 0.021 | relative viability (0.3704 µM): 1.07 ± 0.016 | relative viability (1.111 µM): 1.04 ± 0.034 | relative viability (3.333 µM): 1.07 ± 0.011 | relative viability (10 µM): 1.06 ± 0.025

CC(C)(C)c1cc(NC(=O)Nc2ccc(-c3cn4c(n3)sc3cc(OCCN5CCOCC5)ccc34)cc2)no1 [Quizartinib]
relative viability (0.00017 µM): 1.06 ± 0.028 | relative viability (0.00051 µM): 1.05 ± 0.017 | relative viability (0.00152 µM): 1.05 ± 0.03 | relative viability (0.00457 µM): 1.05 ± 0.029 | relative viability (0.01372 µM): 1.06 ± 0.017 | relative viability (0.04115 µM): 1.06 ± 0.022 | relative viability (0.1235 µM): 1.06 ± 0.027 | relative viability (0.3704 µM): 1.04 ± 0.031 | relative viability (1.111 µM): 1.05 ± 0.017 | relative viability (3.333 µM): 1.05 ± 0.039 | relative viability (10 µM): 1.05 ± 0.039

CC(C)N1CCN(Cc2cnc(-c3cc(-c4cccc5[nH]ccc45)cc4[nH]ncc34)o2)CC1 [Nemiralisib]
relative viability (0.00017 µM): 0.946 ± 0.032 | relative viability (0.00051 µM): 0.961 ± 0.044 | relative viability (0.00152 µM): 0.918 ± 0.042 | relative viability (0.00457 µM): 0.923 ± 0.038 | relative viability (0.01372 µM): 0.954 ± 0.012 | relative viability (0.04115 µM): 0.93 ± 0.061 | relative viability (0.1235 µM): 0.916 ± 0.033 | relative viability (0.3704 µM): 0.89 ± 0.056 | relative viability (1.111 µM): 0.805 ± 0.039 | relative viability (3.333 µM): 0.654 ± 0.032 | relative viability (10 µM): 0.275 ± 0.014

C=CC(=O)N1CCC[C@@H](n2nc(-c3ccc(Oc4ccccc4)cc3)c3c(N)ncnc32)C1 [Ibrutinib]
relative viability (0.00017 µM): 1.02 ± 0.016 | relative viability (0.00051 µM): 1.06 ± 0.039 | relative viability (0.00152 µM): 1.07 ± 0.011 | relative viability (0.00457 µM): 1.05 ± 0.035 | relative viability (0.01372 µM): 1.03 ± 0.033 | relative viability (0.04115 µM): 1.05 ± 0.02 | relative viability (0.1235 µM): 1.05 ± 0.035 | relative viability (0.3704 µM): 1.06 ± 0.051 | relative viability (1.111 µM): 1.08 ± 0.036 | relative viability (3.333 µM): 1.04 ± 0.027 | relative viability (10 µM): 0.845 ± 0.044

CN1CCC(COc2cnc(-c3cccc(Cn4nc(-c5cccc(C#N)c5)ccc4=O)c3)nc2)CC1 [Tepotinib]
relative viability (0.00017 µM): 1.02 ± 0.025 | relative viability (0.00051 µM): 1.07 ± 0.027 | relative viability (0.00152 µM): 1.051 ± 0.0014 | relative viability (0.00457 µM): 1.07 ± 0.029 | relative viability (0.01372 µM): 1.04 ± 0.019 | relative viability (0.04115 µM): 1.06 ± 0.019 | relative viability (0.1235 µM): 1.062 ± 0.0073 | relative viability (0.3704 µM): 1.03 ± 0.035 | relative viability (1.111 µM): 1.04 ± 0.059 | relative viability (3.333 µM): 1.02 ± 0.027 | relative viability (10 µM): 0.777 ± 0.025

C[C@@H]1CCN(C(=O)CC#N)C[C@@H]1N(C)c1ncnc2[nH]ccc12 [Tofacitinib]
relative viability (0.00017 µM): 1.01 ± 0.036 | relative viability (0.00051 µM): 1.05 ± 0.03 | relative viability (0.00152 µM): 1.04 ± 0.03 | relative viability (0.00457 µM): 1.03 ± 0.031 | relative viability (0.01372 µM): 1.07 ± 0.037 | relative viability (0.04115 µM): 1.03 ± 0.05 | relative viability (0.1235 µM): 1.05 ± 0.05 | relative viability (0.3704 µM): 1.06 ± 0.035 | relative viability (1.111 µM): 1.05 ± 0.042 | relative viability (3.333 µM): 1.04 ± 0.034 | relative viability (10 µM): 0.93 ± 0.081

Cc1cc(Nc2ncnc3ccc(NC4=NC(C)(C)CO4)cc23)ccc1Oc1ccn2ncnc2c1 [Tucatinib]
relative viability (0.00017 µM): 1.05 ± 0.062 | relative viability (0.00051 µM): 1.11 ± 0.02 | relative viability (0.00152 µM): 1.1 ± 0.022 | relative viability (0.00457 µM): 1.09 ± 0.031 | relative viability (0.01372 µM): 1.078 ± 0.0072 | relative viability (0.04115 µM): 1.088 ± 0.0077 | relative viability (0.1235 µM): 1.08 ± 0.035 | relative viability (0.3704 µM): 1.059 ± 0.01 | relative viability (1.111 µM): 1.08 ± 0.046 | relative viability (3.333 µM): 1.1 ± 0.044 | relative viability (10 µM): 1.06 ± 0.026

O=C(Nc1cnn2ccc(N3CCC[C@@H]3c3cc(F)ccc3F)nc12)N1CC[C@H](O)C1 [Larotrectinib]
relative viability (0.00017 µM): 1.02 ± 0.015 | relative viability (0.00051 µM): 1 ± 0.022 | relative viability (0.00152 µM): 1.01 ± 0.036 | relative viability (0.00457 µM): 1.07 ± 0.026 | relative viability (0.01372 µM): 1.07 ± 0.031 | relative viability (0.04115 µM): 1.058 ± 0.0089 | relative viability (0.1235 µM): 1.05 ± 0.025 | relative viability (0.3704 µM): 1.02 ± 0.019 | relative viability (1.111 µM): 1.05 ± 0.027 | relative viability (3.333 µM): 1.05 ± 0.032 | relative viability (10 µM): 1.01 ± 0.02

C=CC(=O)N1CCC([C@@H]2CCNc3c(C(N)=O)c(-c4ccc(Oc5ccccc5)cc4)nn32)CC1 [Zanubrutinib]
relative viability (0.00017 µM): 0.96 ± 0.026 | relative viability (0.00051 µM): 0.968 ± 0.017 | relative viability (0.00152 µM): 0.944 ± 0.03 | relative viability (0.00457 µM): 0.958 ± 0.013 | relative viability (0.01372 µM): 0.949 ± 0.027 | relative viability (0.04115 µM): 0.96 ± 0.017 | relative viability (0.1235 µM): 0.909 ± 0.019 | relative viability (0.3704 µM): 0.893 ± 0.052 | relative viability (1.111 µM): 0.827 ± 0.025 | relative viability (3.333 µM): 0.771 ± 0.04 | relative viability (10 µM): 0.731 ± 0.045

CO[C@H]1C[C@@H]2CC[C@@H](C)[C@@](O)(O2)C(=O)C(=O)N2CCCC[C@H]2C(=O)O[C@H]([C@H](C)C[C@@H]2CC[C@@H](OP(C)(C)=O)[C@H](OC)C2)CC(=O)[C@H](C)/C=C(\C)[C@@H](O)[C@@H](OC)C(=O)[C@H](C)C[C@H](C)/C=C/C=C/C=C/1C [Ridaforolimus]
relative viability (0.00017 µM): 1.05 ± 0.027 | relative viability (0.00051 µM): 0.956 ± 0.041 | relative viability (0.00152 µM): 0.867 ± 0.06 | relative viability (0.00457 µM): 0.825 ± 0.066 | relative viability (0.01372 µM): 0.755 ± 0.074 | relative viability (0.04115 µM): 0.711 ± 0.036 | relative viability (0.1235 µM): 0.679 ± 0.015 | relative viability (0.3704 µM): 0.652 ± 0.028 | relative viability (1.111 µM): 0.652 ± 0.019 | relative viability (3.333 µM): 0.619 ± 0.0085 | relative viability (10 µM): 0.634 ± 0.03
